# In patent publication US9217016B2, “Hyaluronic acid-binding synthetic peptidoglycans, preparation, and methods of use” (SYMIC IP, LLC, priority 2011, dated 2015):
# Ends that are not written are not given here.
# Columns and labels:
# aggrecan = assay: Real-time PCR, aggrecan expression; format: cell-based, bovine; conditions: chondrocytes in collagen scaffolds with versus without mAGC
# Method: (§1) Following the cell culture study, constructs were stored in RNAlater solution (Ambion) at 4° C. for less than one week. Total mRNA was extracted using Nucleospin RNA II (Clontech) according to manufacturer's protocols. Extracted mRNA from all samples was quantified using Nanodrop 2000 spectrophotometer (Thermo Scientific) and reverse transcribed into cDNA using High Capacity cDNA Reverse Transcriptase Kit (Applied Biosystems). Real-time PCR was performed using Taqman Gene Expression Assays (Applied Biosystems) with the following primers: GAPDH (Bt03210913_gl), aggrecan (Bt03212186_ml) and collagen type II (Bt03251861_ml). 60 ng of cDNA template was prepared per 20 μL reaction for the two genes of interest and the endogenous gene. Real-time PCR analysis was carried out using a Taqman PCR Master Mix and 7500 Real-Time PCR System (Applied Biosystems). Data reported was normalized to GAPDH gene expression.
# [1] = tested on: bovine chondrocytes in collagen scaffolds; assay: In vitro inflammation model: CS release into media (DMMB assay); format: cell-based; conditions: cumulative over eight-day culture, with and without 20 ng/mL IL-1β, versus scaffolds with CS
# Method: (§2) Collagen scaffolds seeded with chondrocytes were stimulated with IL-1β and assessed for degradation products.
# (§3) Primary chondrocytes were harvested from three-month-old bovine knee joints obtained from an abattoir within 24 hours of slaughter (Dutch Valley Veal). Cartilage slices, 150-200 μm thick, were shaved from the lateral femoral condyle and washed three times in serum-free DMEM/F-12 medium (50 μg/mL ascorbic acid 2-phosphate, 100 μg/mL sodium pyruvate, 0.1% bovine serum albumin, 100 units/mL penicillin, 100 μg/mL streptomycin and 25 mM HEPES) prior to digestion with 3% fetal bovine serum (FBS) and 0.2% collagenase-P (Roche Pharmaceuticals) at 37° C. for six hours. Released chondrocytes were filtered through 70 μm cell strainer and centrifuged at 1000 rpm three times for five minutes each in medium listed above supplemented with 10% FBS. The cell pellet was resuspended in 10% FBS supplemented media and plated on 10 cm dishes at 10,000 cells/mL in a 37° C., 5% CO2 humidified incubator until confluent. […]
# (§4) GAG degradation was monitored by measuring CS released in cell culture media using the dimethylmethylene blue (DMMB) dye assay and computed with a chondroitin-6-sulfate standard curve. Similarly, type I collagen degradation in cell culture media was monitored using the Sircol Collagen Assay using manufacturer specified protocols (Bio-Color). […]
# [2] = tested on: bovine chondrocytes in collagen scaffolds; assay: In vitro inflammation model: collagen breakdown (Sircol assay); format: cell-based; conditions: cumulative over eight-day culture, with and without 20 ng/mL IL-1β, versus scaffolds with CS
# Method: as §2, §3, §4
# [3] = tested on: Sprague-Dawley rat knee joints; assay: Animal model of osteoarthritis (surgical induction), microCT; format: in vivo, Sprague-Dawley rats; conditions: six and eight weeks after OA induction surgery; 10 μl of a 1 μm mAGC weekly starting at week 4
# Method: Sprague-Dawley rats (250-300 g) were used for surgery. The patellar tendon, the anterior and posterior cruciate ligaments and the medial, lateral collateral ligaments were transected. The medial and lateral meniscuses were totally menisectomized. The knee joint capsule was repaired with an absorbable suture and the skin was closed with a 4-0 monofilament nylon. Starting at week 4, 10 μl of a 1 μm mAGC was administered weekly.
# The extent of inflammation was indicated by the MMP-13 probe (FIG. 18) in Sprague-Dawley rats treated with and without peptidoglycan at four, six and eight weeks post surgery (FIG. 19). […] Injured knees 6 weeks and 8 weeks following OA induction, (FIG. 21, Panels A and D, respectively), injured knees following peptidoglycan treatment (FIG. 21, Panels B and E, respectively), and Normal knee (FIG. 21, Panel C), are shown.
# collagen type II = assay: Real-time PCR, collagen type II expression; format: cell-based, bovine
# Method: as §1
# [4] = Diffusion of peptidoglycans through cartilage matrix (avidin-biotin stain); conditions: aggrecan-depleted bovine cartilage explant, 10 μM diffused through articular surface for one hour
# Method: Cartilage explants were obtained from the load bearing region of three month old bovine knee joints. Native aggrecan was removed from harvested cartilage explants leaving a matrix consisting primarily of type II collagen and residual GAG. This was achieved by treating explants with 0.5% (w/v) trypsin in HBSS for 3 hours at 37° C. (FIG. 13). After trypsin treatment explants were washed three times in HBSS and incubated with 20% FBS to inactivate residual trypsin activity. Peptidoglycan was dissolved in distilled water at 10 μM concentration and diffused through the articular surface of cartilage explants by placing 10 μL of the solution on the surface every ten minutes for one hour at room temperature (FIG. 14). Normal cartilage and aggrecan depleted cartilage were treated with 1×PBS as positive and negative controls respectively. After diffusion, explants were washed three times with 1×PBS and stored at −20° C. until further testing. Diffusion of peptidoglycan was confirmed by staining a midsagittal section of the tissue with streptavidin-horseradish peroxidase stain. The streptavidin stain binds to the biotin labeled molecule and is depicted as a brown color (FIGS. 15 and 16).
# [5] = tested on: Matrix metalloprotease-I (MMP-I); assay: Collagen protection: degradation of collagen type I in ECM replicates by MMP-I (hydroxyproline assay); format: biochemical; conditions: CI + HA + treatment, 50 hr at 37° C.
# Method: ECM-based constructs containing collagen alone, collagen+HA+CS, or collagen+HA+10.5GAH−CS were created in 8-well chambered slides as described previously. The final sample volume was 200 μL consisting of 0.8 mg of collagen type I. Matrix metalloprotease-I (MMP-I, R&D Systems, Minneapolis, Minn.) at a concentration of 0.133 mg/mL, was activated following the protocol detailed in the manufacturer's instructions. Briefly, MMP-1, already dissolved in manufacturer's buffer (50 mM Tris, 10 mM CaCl2, 150 mM NaCl, 0.05% Brij-35, pH 7.5), was combined with an equal volume of 25 mM APMA (Sigma) in DMSO at 37° C. for 2 hrs to activate the enzyme. Upon activation, the MMP-1 solution was diluted two fold in water and was added to the sample as a 100 μL supernatant. […] Following hydrolysis, the amount of hydroxyproline (hyp) was analyzed according to the protocol developed by Reddy, et al. (Clin Biochem, 1996, 29: 225-9). […] After the development of the chlorophore, the samples were read on a spectrophotometer at a wavelength of 550 nm. Absorbance readings were compared to those obtained from known concentrations of collagen to determine the amount of collagen remaining in each sample.
# Each replicate sample was constructed with 0.8 mg of CI, and after degradation, the remaining CI amount was determined by the protocol developed by Reddy et al. and converting that to CI amount by a set of CI standards. […]
# [6] = tested on: Hyaluronidase (Type II from Sheep Testes); assay: Protection of hyaluronic acid from hyaluronidase degradation (dynamic viscosity); format: biochemical; conditions: 0.5 wt % HA, 75:1 treatment to HA molar ratio
# Method: Dynamic viscosity values of HA solutions were determined using the AR-G2. High molecular weight HA solutions have a large viscosity due to the extensive chain entanglement caused by the long chain length. Hyaluronidase (Type II from Sheep Testes, Sigma) cleaves the HA chain, creating shorter chains with less entanglement. The shorter HA chains will have a measurably lower viscosity. HA solutions were incubated with 100 units/mL hyaluronidase. Dynamic viscosities were determined using a time sweep with constant angular frequency and oscillatory stress initially and at 2 and 4-hour timepoints. Samples (at 0.5 wt % HA) consisted of HA, HA+CS, and HA+10.5GAH−CS. The treatment values were added at a 75:1 treatment to HA molar ratio. The percent degradation was calculated for each measurement by dividing the initial viscosity from the difference of the measured viscosity minus the initial viscosity.
# Viscosities of each treatment without hyaluronidase (TES Buffer replaced the hyaluronidase volume) were initially measured and served as the baseline for the percent degradation calculations. The 0 hr timepoint involved the addition of the hyaluronidase, mixing of the solution, pipetting onto the rheometer, and the beginning equilibration operation of the machine. Therefore, the 0 hr timepoint occurred approximately two minutes after the addition of hyaluronidase. […]
substance,measurement,setting,value
mAGC: HA binding peptidoglycan (aggrecan mimic): GAHWQFNALTVRGGGC (SEQ ID NO: 35) peptides attached to chondroitin sulfate; peptide number not stated (also: attached to chondroitin sulfate),aggrecan expression (normalized to GAPDH),aggrecan,lower aggrecan expression
same,amount of CS released into cell culture media,[1],significantly decreased
same,amount of collagen released into cell culture media,[2],significantly decreased
same,cartilage by MicroCT,[3],re-growth of new cartilage
same,level of collagen type II expression (normalized to GAPDH),collagen type II; aligned collagen scaffolds,higher in scaffolds prepared with mAGC
same,level of collagen type II expression (normalized to GAPDH),collagen type II; unaligned scaffolds,higher in scaffolds prepared without mAGC
mAG(II)C: Collagen type II binding peptidoglycan with peptide WYRGRLGC (SEQ ID NO: 36) (also: attached to glycosaminoglycan backbone),depth of penetration into tissue,[4],approximately 200 um
chondroitin sulfate [CS],percent degradation of CI,[5],74.7%
same,percent degradation of HA,[6]; 0 hr timepoint (about 2 min after hyaluronidase),almost complete degradation
same,percent degradation of HA,[6]; 2 hr timepoint,above 90%
